Data taken from patent publication US20160374981A1, “ANORECTIC AGENT” (Nippon Suisan Kaisha, Ltd., priority 2012, published 2016).

Columns and labels:
Assay type in all cases: in vivo
[1] = Single-dose oral administration of free fatty acids to SD rats: food intake; details: male SD rats
Method: Using a 1.5% (by weight) aqueous solution of a fatty acid ester of glycerol (RYOTO® POLYGLYESTER; product of Mitsubishi-Kagaku Foods Corporation) as a solvent, a free fatty acid form of palmitoleic acid (C16:1), a free fatty acid form of palmitic acid (C16:0), a free fatty acid form of oleic acid (C18:1), a free fatty acid form of lauric acid (C12:0), a free fatty acid form of decenoic acid (C10:1), and a free fatty acid form of linoleic acid (C18:2), all being products of Sigma, were added to the solvent and uniformly emulsified by sonication in an ice bath to thereby prepare dosing samples.
(§1) Male Sprague-Dawley rats (hereinafter referred to as SD rats) were used in the experiment. Nine-week-old SD rats (Japan SLC, Inc.) were purchased and preliminarily reared for a week in individual cages. During the preliminary rearing period, the animals were allowed free access to the solid feed Labo MR Stock (Nosan Corporation) and distilled water through water bottles.
After the preliminary rearing, the 10-week-old SD rats were divided into the following seven groups (10 animals per group) considering their body weight: a control group administered with only the solvent (hereinafter referred to as “control group”); a group administered with palmitoleic acid (C16:1) (hereinafter “C16:1 administered group”); a group administered with palmitic acid (C16:0) (hereinafter “C16:0 administered group”); a group administered with oleic acid (C18:1) (hereinafter “C18:1 administered group”); a group administered with lauric acid (C12:0) (hereinafter “C12:0 administered group”); a group administered with decenoic acid (C10:1) (hereinafter “C10:1 administered group”); and a group administered with linoleic acid (C18:2) (hereinafter “C18:2 administered groups”); these groups of rats were subjected to the main test. In the main test, the solvent or each fatty acid under test was orally administered in a single dose through a gastric tube on the very day of the experiment. To the control group of SD rats, the solvent was orally administered at a dose of 10 mL/kg per animal. The test subjects, C16:1, C16:0, C18:1, C12:0, C10:1 and C18:2, each taken in an amount of 150 mg or 500 mg, were added to 10 mL of the solvent and emulsified; the emulsion was orally administered to the SD rats in a dose of 10 mL/kg per animal and a measurement was conducted both 30 minutes and an hour later. The amount of food intake (the amount of food supplied immediately after the dosing of sample minus the amount of food at a specified time after the dosing of sample) was measured both 30 minutes and an hour after oral administration of the test sample.

[2] = Long-term oral administration of free fatty acids to KKAy mice: food intake and body weight; details: male KKAy mice
Method: Using a 1.5% (by weight) aqueous solution of a fatty acid ester of glycerol (RYOTO®POLYGLYESTER; product of Mitsubishi-Kagaku Foods Corporation) as a solvent, a free fatty acid form of palmitoleic acid (C16:1), a free fatty acid form of palmitic acid (C16:0), a free fatty acid form of gadoleic acid (C20:1), and a free fatty acid form of erucic acid (C22:1), all being products of Sigma with purities of 99% and more, were added to the solvent and uniformly emulsified by sonication in an ice bath to thereby prepare dosing samples.
as §1, with “Male, spontaneously diabetic model mice KKAy/Ta” for “Male Sprague-Dawley rats”, “KKAy mice)” for “SD rats)”, “test. Five-week-old KKAy mice (CLEA Japan,” for “experiment. Nine-week-old SD rats (Japan SLC,”
After the preliminary rearing, the 6-week-old KKAy mice were divided into the following five groups (10 animals per group) considering their body weight: a control group administered with only the solvent (hereinafter referred to as “control group”); a group administered with palmitoleic acid (C16:1) (hereinafter “C16:1 administered group”); a group administered with palmitic acid (C16:0) (hereinafter “C16:0 administered group”); a group administered with gadoleic acid (C20:1) (hereinafter “C20:1 administered group”); and a group administered with erucic acid (C22:1) (hereinafter “C22:1 administered group”); these groups of mice were subjected to the main test. In the main test, the mice of each group were reared for 4 weeks under the environment of light (12 hr) and dark (12 hr) cycles as they were allowed free access to the powdered feed Labo MR Stock (Nosan Corporation) and distilled water through water bottles. In the process, the solvent or each fatty acid under test was orally administered through a gastric tube at 10 a.m. every day. […]
During the 4-week rearing period, the amount of food supplied was measured at days 1, 5, 9, 12, 16, 19, 23 and 26 after dosing and the amount of leftover was measured on the next day, with the respective measurements being conducted for each feeder. The amount of daily food intake was calculated from the difference between the values for two consecutive measurements. The “average food intake” is the average of the food intakes as measured on the respective days of measurement. […] The percent body weight gain was calculated by the formula [(final body weight−initial body weight)/initial body weight]×100. The “final body weight” is the body weight as measured after the end of the 4-week rearing period whereas “initial body weight” is the body weight as measured at the start of the test.

cholecystokinin (CCK) = test: Blood cholecystokinin (CCK) level in SD rats after single oral dose (ELISA); details: male SD rats, versus control group (FIG. 13)
Method: (§2) Using a 1.5% (by weight) aqueous solution of a fatty acid ester of glycerol (RYOTO® POLYGLYESTER; product of Mitsubishi-Kagaku Foods Corporation) as a solvent, a free fatty acid form of palmitoleic acid (C16:1) and a free fatty acid form of oleic acid (C18:1), both being products of Sigma, were added to the solvent and uniformly emulsified by sonication in an ice bath to thereby prepare dosing samples.
(§3) Male Sprague-Dawley rats (hereinafter referred to as SD rats) were used in the test. Nine-week-old SD rats (Japan SLC, Inc.) were purchased and preliminarily reared for a week in individual cages. […]
(§4) After the preliminary rearing, the 10-week-old SD rats were divided into the following three groups (10 animals per group) considering their body weight: a control group administered with only the solvent (hereinafter referred to as “control group”); a group administered with palmitoleic acid (C16:1) (hereinafter “C16:1 administered group”); and a group administered with oleic acid (C18:1) (hereinafter “C18:1 administered group”); these groups of rats were subjected to the main test. […] With the level of gene expression in the control group taken as unity, the relative expression levels of respective genes in the C16:1 administered group or 18:1 administered group were calculated. […]

CCK mRNA = test: Small intestine CCK mRNA expression level in SD rats after single oral dose (real-time PCR); details: male SD rats; an hour after single oral dose 500 mg/kg; versus control group (FIG. 14)
Method: as §2, §3, §4

[3] = an hour after single oral dose 150 or 500 mg/kg, comparison with other fatty acids, versus control group (FIG. 11)

CCCCCCCCCCCC(=O)O [C12:0, lauric acid, reference compound]
food intake [1, 3]: no significant drops

CCCCCCCCCCCCCCCC(=O)O [C16:0, palmitic acid, reference compound]
food intake (test for dose-dependency) ([1]; 30 minutes after single oral dose 50, 150 or 500 mg/kg, compared with control group and C16:0 administered group (FIG. 7)): decreased significantly in a dose-dependent manner

CCCCCC/C=C\CCCCCCCC(=O)O [C16:1, palmitoleic acid]
food intake ([2]; 300 mg in 10 mL solvent, 10 mL/kg oral every day, 4 weeks, compared with control group (FIGS. 1 and 2)): significant drops in the food intake
percent body weight gain ([2]; 4 weeks after administration, compared with control group (FIG. 4)): significant drop in the percent body weight gain
daily averages for the amount of food intake ([2]; daily oral administration, 4 weeks, FIG. 2, P<0.05): significant drop in the amount of food intake
body weight ([2]; daily oral administration, second to fourth week of dosing, compared with control group (FIG. 3)): significant drop in body weight
food intake ([1]; 30 minutes after single oral dose 500 mg/kg, compared with control group and C16:0 administered group (FIGS. 5 and 6)): significant drop in food intake
food intake ([1]; 30 minutes after single oral dose 150 or 500 mg/kg, compared with control group and C18:1 administered group (FIGS. 8-9)): significant drops in food intake
food intake ([1]; an hour after single oral dose 500 mg/kg, compared with control group and C16:0 administered group (FIGS. 5 and 6)): significant drop in food intake
food intake ([1]; an hour after single oral dose 150 or 500 mg/kg, compared with control group and C18:1 administered group (FIGS. 8, 10)): significant drops in food intake
food intake [1, 3]: significant drops in food intake
blood CCK level (cholecystokinin (CCK); an hour after single oral dose 500 mg/kg): increased significantly
small intestine CCK mRNA expression level (CCK mRNA): increased significantly

CCCCC/C=C\C/C=C\CCCCCCCC(=O)O [C18:2, linoleic acid, reference compound]
food intake [1, 3]: no significant drops

CCCCCCCC/C=C\CCCCCCCC(=O)O [oleic acid, reference compound]
blood CCK level (cholecystokinin (CCK); an hour after single oral dose 150 or 500 mg/kg): no significant elevation

decenoic acid [C10:1, reference compound]
food intake [1, 3]: no significant drops
